Results as given in US20260272954A1, “ANALGESIC COMPOUNDS COMPRISING CHARGED PARTICLES AND METHOD OF MANUFACTURE THEREOF” (UNIVERSITY OF CONNECTICUT, priority 2023, published 2026).

Assay: Release of QX-314 into water through dialysis membrane (HPLC)
Type: physicochemical
Conditions: dialysis membrane in 20 ml ultrapure water; FIG. 6
Description: High Performance Liquid Chromatography (HPLC) was used to assess the amount of QX-314 remaining in the supernatant after complexing with the NPs. The conditions for HPLC were as follows. The mobile phase consisted of 50 mM phosphate buffer, with 0.16% triethylamine, pH 4.0 buffer:methanol:acetonitrile=60:30:10 vol/vol/vol. The chromatographic conditions were: 30 μL of solution injected, 40° C. constant temperature, flow rate of 0.3 ml/min, and wavelength detection of 210 nm. The column used was a Supelco C18 Column 25 cm×4.6 mm.
The DPPC:PA (mass ratio=1:1) nanoparticles were complexed with QX-314 by incubating 0.5 mg of QX-314 with 1 mL of 0.25% (w/v) lipid solution in a 37° C. room on a gentle shaker. After 1 hour, the formulation was transferred to a dialysis membrane and incubated in 20 ml of ultrapure water. The amount of QX-314 released into the water was measured as a function of time using HPLC as described above. Aqueous solution of QX-314 in dialysis membrane was used as the control. A representative image of positively charged molecule (QX-314) complexed with negatively charged lipid (L-α-phosphatidic acid) is shown below.

Compound: CC[N+](CC)(CC)CC(=O)Nc1c(C)cccc1C [QX-314 solution, QX-314]
- burst release of QX-314 (time): ≤ 3 h
